Laboratory results from US8686044B2, “Amide derivative, pest control agent containing the amide derivative, and use of the amide derivative” (Mitsui Chemicals Agro, Inc., priority 2008, dated 2014).

Key:
Assay type in all cases: in vivo
Spodoptera litura = test: Pesticidal test against Spodoptera litura (cabbage leaf dip); details: foliar, 144 h, 2-stage larvae, examined after 6 days, 25° C., read-out: pesticidal rate; for pest or weed control at 1 ppm: concentration 1 ppm; for pest or weed control at 10 ppm: concentration 10 ppm
Protocol: (§1) Pesticidal Test against Spodoptera litura A piece of a cabbage leaf was immersed for 30 seconds in a chemical solution in which a test compound had been prepared at a predetermined concentration, and air-dried, and then put into a 7 cm polyethylene cup having a filter paper laid on the bottom thereof, and 2-stage larvae of Spodoptera litura were released. They were left to stand in a thermostatic chamber at 25° C., and the numbers of the living pests and the dead pests were examined after 6 days. The test was carried out with five larvae per group in two replicates. Further, the following compound (A) disclosed in the pamphlet of International Publication WO 2005/073165 was used as a comparative compound.

Plutella xylostella = test: Pesticidal test against Plutella xylostella (cabbage leaf dip); details: foliar, 144 h, 2-stage larvae, examined after 6 days, 25° C., read-out: pesticidal rate; for pest or weed control at 1 ppm: concentration 1 ppm; for pest or weed control at 10 ppm: concentration 10 ppm
Protocol: as §1, with “Plutella xylostella” for “Spodoptera litura”, “above” for “following”, “(A)” for “(A) disclosed in the pamphlet of International Publication WO 2005/073165”

Laodelphax striatellus = test: Pesticidal test against Laodelphax striatellus (rice seedling spray); details: 144 h, concentration 100 ppm, 3-stage larvae, examined after 6 days, 25° C., read-out: pesticidal rate
Protocol: Pesticidal Test against Laodelphax striatellus
2.5 ml of an acetone solution in which a test compound had been prepared at a predetermined concentration was sprayed on rice seedlings, air-dried, and then put into a glass tube having a diameter of 3 cm and a height of 13 cm, having water therein, and 3-stage larvae of Laodelphax striatellus were released and the tube was capped. They were left to stand in a thermostatic chamber at 25° C., and the numbers of the living pests and the dead pests were examined after 6 days. The test was carried out with ten larvae per group in two replicates.

Row | Compound | pest or weed control at 1 ppm (Spodoptera litura) [%] | pest or weed control at 1 ppm (Plutella xylostella) [%] | pest or weed control at 100 ppm (Laodelphax striatellus) [%] | pest or weed control at 10 ppm (Plutella xylostella) [%] | pest or weed control at 10 ppm (Spodoptera litura) [%]
1 | N#Cc1ccc(C(=O)Nc2cc(C(=O)Nc3c(Cl)cc(C(F)(C(F)(F)F)C(F)(F)F)cc3C(F)(F)F)ccc2C#N)cc1 [1-491] | ≥ 70 | ≥ 70 | ≥ 70 | – | –
2 | N#Cc1ccc(C(=O)Nc2c(Br)cc(C(F)(C(F)(F)F)C(F)(F)F)cc2C(F)(F)F)cc1NC(=O)c1ccccc1 [1-627, 3-benzamide-N-(2-bromo-4-(perfluoropropan-2-yl)-6-(trifluoromethyl)phenyl)-4-cyanobenzamide] | ≥ 70 | ≥ 70 | ≥ 70 | – | –
3 | CN(C(=O)c1ccc(C#N)cc1)c1cc(C(=O)Nc2c(Cl)cc(C(F)(C(F)(F)F)C(F)(F)F)cc2C(F)(F)F)ccc1C#N [2-491, N-(2-chloro-4-(perfluoropropan-2-yl)-6-(trifluoromethyl)phenyl)-4-cyano-3-(4-cyano-N-methylbenzamide)benzamide] | ≥ 70 | ≥ 70 | ≥ 70 | – | –
4 | N#Cc1cccc(C(=O)Nc2cccc(C(=O)Nc3c(Br)cc(C(F)(C(F)(F)F)C(F)(F)C(F)(F)F)cc3Br)c2)c1 (stereo not drawn) [6-45] | ≥ 70 | ≥ 70 | ≥ 70 | – | –
5 | O=C(Nc1c(Br)cc(C(F)(C(F)(F)F)C(F)(F)C(F)(F)F)cc1Br)c1cccc(NC(=O)c2cccnc2Cl)c1 (stereo not drawn) [6-57] | ≥ 70 | ≥ 70 | ≥ 70 | – | –
6 | O=C(Nc1cccc(C(=O)Nc2c(I)cc(C(F)(C(F)(F)F)C(F)(F)C(F)(F)F)cc2I)c1)c1ccccc1 (stereo not drawn) [6-71] | ≥ 70 | ≥ 70 | ≥ 70 | – | –
7 | N#Cc1ccc(C(=O)Nc2cccc(C(=O)Nc3c(I)cc(C(F)(C(F)(F)F)C(F)(F)C(F)(F)F)cc3I)c2)cc1 (stereo not drawn) [6-79, 3-(4-cyanobenzamide)-N-(2,6-diiodo-4-(perfluorobutan-2-yl)phenyl)benzamide] | ≥ 70 | ≥ 70 | ≥ 70 | – | –
8 | O=C(Nc1c(Cl)cc(C(F)(C(F)(F)F)C(F)(F)F)cc1C(F)(F)F)c1cccc(NC(=O)c2cccnc2Cl)c1 [6-147] | ≥ 70 | ≥ 70 | ≥ 70 | – | –
9 | O=C(Nc1cccc(C(=O)Nc2c(Br)cc(C(F)(C(F)(F)F)C(F)(F)F)cc2C(F)(F)F)c1)c1ccccc1 [6-268] | ≥ 70 | ≥ 70 | ≥ 70 | – | –
10 | O=C(Nc1c(Br)cc(C(F)(C(F)(F)F)C(F)(F)F)cc1C(F)(F)F)c1cccc(NC(=O)c2ccccc2F)c1 [6-269] | ≥ 70 | – | ≥ 70 | ≥ 70 | –
11 | O=C(Nc1cccc(C(=O)Nc2c(Br)cc(C(F)(C(F)(F)F)C(F)(F)F)cc2C(F)(F)F)c1)c1cccc(F)c1 [6-270] | ≥ 70 | ≥ 70 | ≥ 70 | – | –
12 | O=C(Nc1c(Br)cc(C(F)(C(F)(F)F)C(F)(F)F)cc1C(F)(F)F)c1cccc(NC(=O)c2c(F)cccc2F)c1 [6-290] | ≥ 70 | ≥ 70 | ≥ 70 | – | –
13 | O=C(Nc1c(Br)cc(C(F)(C(F)(F)F)C(F)(F)F)cc1C(F)(F)F)c1cccc(NC(=O)c2cccnc2Cl)c1 [6-304] | ≥ 70 | ≥ 70 | ≥ 70 | – | –
14 | O=C(Nc1c(Br)cc(C(F)(C(F)(F)F)C(F)(F)F)cc1C(F)(F)F)c1cccc(NC(=O)c2cccnc2I)c1 [6-306] | ≥ 70 | ≥ 70 | ≥ 70 | – | –
15 | O=C(Nc1cccc(C(=O)Nc2c(Br)cc(C(F)(C(F)(F)F)C(F)(F)F)cc2C(F)(F)F)c1)c1ccc(Cl)nc1 [6-311] | ≥ 70 | – | ≥ 70 | ≥ 70 | –
16 | O=C(Nc1c(I)cc(C(F)(C(F)(F)F)C(F)(F)F)cc1C(F)(F)F)c1cccc(NC(=O)c2ccccc2F)c1 [6-425] | ≥ 70 | ≥ 70 | ≥ 70 | – | –
17 | N#Cc1cccc(C(=O)Nc2cccc(C(=O)Nc3c(I)cc(C(F)(C(F)(F)F)C(F)(F)F)cc3C(F)(F)F)c2)c1 [6-444] | ≥ 70 | ≥ 70 | ≥ 70 | – | –
18 | N#Cc1ccc(C(=O)Nc2cccc(C(=O)Nc3c(I)cc(C(F)(C(F)(F)F)C(F)(F)F)cc3C(F)(F)F)c2)cc1 [6-445] | ≥ 70 | ≥ 70 | ≥ 70 | – | –

Row | Compound | pest or weed control at 1 ppm (Spodoptera litura) [%] | pest or weed control at 1 ppm (Plutella xylostella) [%] | pest or weed control at 100 ppm (Laodelphax striatellus) [%] | pest or weed control at 10 ppm (Plutella xylostella) [%] | pest or weed control at 10 ppm (Spodoptera litura) [%]
19 | O=C(Nc1c(I)cc(C(F)(C(F)(F)F)C(F)(F)F)cc1C(F)(F)F)c1cccc(NC(=O)c2cccnc2Br)c1 [6-461] | ≥ 70 | ≥ 70 | ≥ 70 | – | –
20 | O=C(Nc1cccc(C(=O)Nc2c(Br)cc(C(F)(C(F)(F)F)C(F)(F)F)cc2Br)c1F)c1cccnc1Cl [6-1140, 2-chloro-N-(3-(2,6-dibromo-4-(perfluoropropan-2-yl)phenylcarbamoyl)-2-fluorophenyl)nicotinamide] | ≥ 70 | ≥ 70 | ≥ 70 | – | –
21 | O=C(Nc1cccc(C(=O)Nc2c(Br)cc(C(F)(C(F)(F)F)C(F)(F)C(F)(F)F)cc2Br)c1F)c1ccccc1F (stereo not drawn) [6-1183] | ≥ 70 | ≥ 70 | ≥ 70 | – | –
22 | CN(C(=O)c1ccccc1F)c1cccc(C(=O)Nc2c(I)cc(C(F)(C(F)(F)F)C(F)(F)F)cc2C(F)(F)F)c1 [7-425] | ≥ 70 | ≥ 70 | – | – | –
23 | CN(C(=O)c1ccccc1)c1cccc(C(=O)Nc2c(C(F)(F)F)cc(C(F)(C(F)(F)F)C(F)(F)F)cc2C(F)(F)F)c1 [7-804] | ≥ 70 | – | – | ≥ 70 | –
24 | CN(C(=O)c1cccc(C#N)c1)c1cccc(C(=O)Nc2c(C(F)(F)F)cc(C(F)(C(F)(F)F)C(F)(F)F)cc2C(F)(F)F)c1 [7-824] | ≥ 70 | ≥ 70 | – | – | –
25 | CN(C(=O)c1ccc(C#N)cc1)c1cccc(C(=O)Nc2c(Cl)cc(C(F)(C(F)(F)F)C(F)(F)F)cc2Cl)c1F [7-969] | ≥ 70 | ≥ 70 | – | – | –
26 | CN(C(=O)c1cccnc1Cl)c1cc(C(=O)Nc2c(Br)cc(C(F)(C(F)(F)F)C(F)(F)F)cc2C(F)(F)F)ccc1F [7-3384] | ≥ 70 | ≥ 70 | – | – | –
27 | CN(C(=O)c1ccc(F)cc1)c1cccc(C(=O)Nc2c(I)cc(C(F)(C(F)(F)F)C(F)(F)C(F)(F)F)cc2I)c1 (stereo not drawn) [7-5905] | ≥ 70 | ≥ 70 | – | – | –
28 | CN(C(=O)c1ccc(S(C)(=O)=O)cc1)c1cccc(C(=O)Nc2c(Br)cc(C(F)(C(F)(F)F)C(F)(F)F)cc2C(F)(F)F)c1 [7-5908] | – | – | – | ≥ 70 | ≥ 70
29 | COC(=O)c1cc(C#N)cc(C(=O)N(C)c2cccc(C(=O)Nc3c(Br)cc(C(F)(C(F)(F)F)C(F)(F)F)cc3C(F)(F)F)c2F)c1 [7-5910] | ≥ 70 | ≥ 70 | – | – | –
30 | CN(C(=O)c1ccccc1)c1cccc(C(=O)Nc2c(Br)cc(C(F)(F)C(F)(F)F)cc2C(F)(F)F)c1 [7-5911] | – | – | – | ≥ 70 | ≥ 70
31 | CN(C(=O)c1cccc(NC(=O)c2ccccc2)c1)c1c(Br)cc(C(F)(C(F)(F)F)C(F)(F)F)cc1C(F)(F)F [8-268] | ≥ 70 | ≥ 70 | – | – | –
32 | CN(C(=O)c1cccc(NC(=O)c2cccc(C#N)c2)c1)c1c(Br)cc(C(F)(C(F)(F)F)C(F)(F)F)cc1C(F)(F)F [8-288] | ≥ 70 | ≥ 70 | – | – | –
33 | CN(C(=O)c1cccc(NC(=O)c2ccccc2)c1)c1c(C(F)(F)F)cc(C(F)(C(F)(F)F)C(F)(F)F)cc1C(F)(F)F [8-804] | ≥ 70 | – | – | ≥ 70 | –
34 | CN(C(=O)c1cccc(NC(=O)c2cccc(C#N)c2)c1)c1c(C(F)(F)F)cc(C(F)(C(F)(F)F)C(F)(F)F)cc1C(F)(F)F [8-824] | ≥ 70 | ≥ 70 | – | – | –
35 | CN(C(=O)c1ccccc1F)c1nc(C(=O)Nc2c(Br)cc(C(F)(C(F)(F)F)C(F)(F)F)cc2C(F)(F)F)cs1 [27-628, N-(2-bromo-4-(perfluoropropan-2-yl)-6-(trifluoromethyl)phenyl)-2-(2-fluoro-N-methylbenzamide)thiazole-4-carboxamide] | – | – | – | ≥ 70 | ≥ 70
36 | CN(C(=O)c1cccnc1Cl)c1nc(C(=O)Nc2c(Br)cc(C(F)(C(F)(F)F)C(F)(F)F)cc2C(F)(F)F)cs1 [27-663] | ≥ 70 | – | – | ≥ 70 | –
